# Source: patent US5496703A, “Indirect immunoassay for dioxinlike compounds” (priority 1993, dated 1996)
# Entries after “also recorded” stand apart in the source; their conditions may differ.
# Key:
# [1] = system: total hepatic S-9 protein tyrosylphosphorylation; assay: ELISA with antiphosphotyrosine monoclonal antibody, total hepatic S-9 protein tyrosylphosphorylation, mice dosed i.p.; assay type: in vivo, C57BL/6 mice
# Experimental: (§1) Female, C57BL/6 mice (or any cytochrome P-450IA1 inducible strain) were obtained from Harton Sprague Dawley (Indianapolis, Ind.). Experiments were performed using four to six week old, female mice weighing approximately 16 to 20 g. Mice were fed Prolab RMH 1000 rat, mouse and hamster food (Agway, Cortland, N.Y.) and received tap water ad libitum. All mice were housed three to five per cage and maintained on a photoperiod of 12 hours. Mice were killed 24 hours following an intraperitoneal injection of either corn oil alone or TCDD (Analabs) at 0.25, 0.5, 1, 2, 4, 10, 50 μg/kg, the volume of the injections ranged from 0.1 to 0.2 ml per mouse. Hepatic S-9 fractions were prepared by homogenizing the liver in 3 times the volume of 0.15M KCl. Following a 9000×g centrifugation for 20 minutes, the supernatant (S-9) fraction was carefully removed and quickly frozen for storage at -80° C.
# ELISA were performed with 96-well microtiter plates precoated with antigen. S-9 was used as antigen and was prepared as a series of geometric dilutions ranging from 0.4 to 500 μg protein/mL PBS. One-tenth mL from each dilution was promptly pipetted into the wells of a the microtiter plate in quadruplicate. Plates were incubated overnight at 4° C. After washing with 0.05% Tween 20 (polyoxyethylenesorbitan monolaurate) in phosphate buffered saline (PBS), individual wells were saturated with 0.2 mL bovine serum albumin (20 mg/mL in PBS) for 2 hours at 37° C. Wells were then incubated with antiphosphotyrosine monoclonal antibody (1.5 μg/mL ascites fluid) in 1 mg/mL bovine serum albumin and 0.05% Tween 20 in PBS, and bound for 1 to 1.5 hours at 22° C. Incubation with horseradish peroxidase-linked antimouse IgG (Sigma, St. Louis; 0.5×10^3 mg IgG/mL PBS) and subsequent washing was performed as with the original monoclonal antibody. Peroxidase activity was determined after incubation with substrate (0.03% H2 O2 and 1 mM 2,2'-azinodi(d-ethyl-benzthiazoline sulfonic acid-6) dissolved in 100 mM sodium citrate (pH 4.2) at 22° C. At the first visualization of color change A415 values were recorded.
# [2] = system: protein tyrosylphosphorylation of hepatic S-9 proteins; assay: Immunoblot / densitometry of hepatic S-9 phosphotyrosyl proteins, mice dosed i.p.; assay type: in vivo, C57BL/6 mice
# Experimental: as §1
# The separation of S-9 proteins by means of SDS PAGE was performed by mixing the S-9 1:1 with a double strength sodium dodecyl sulfate sample buffer and heating the solution at 100° C. for 3 minutes prior to one-dimensional SDS polyacrylamide gel electrophoresis with 10% polyacrylamide. After electrophoresis, a Milliblot SDS electroblot apparatus (Millipore, Bedford, Mass.) was used to transfer the proteins from the polyacrylamide gels to an Immobilon™ membrane filter (Millipore). Complete transfers were accomplished in 25-30 minutes at 500 mA and were assessed by tracking pre-stained molecular weight standards onto the membrane filter. Membrane filters were blocked by incubating in TBS (Tris buffered saline) containing 5% milk for 30 minutes at 37° C. The membranes were then washed in TBST (TBS with 0.05% Tween 20) and incubated overnight with antiphosphotyrosine monoclonal antibody (1.5 μg/mL) in TBST. The primary antibody was removed, and the membranes were washed four times in TBST. To visualize the antibody reaction, the membranes were incubated for 3 hours at 37° C. with alkaline phosphatase-conjugated antimouse IgG diluted 1:1000 in TBST, washed 3 times in TBST, and developed for 15 to 30 minutes. Determination of molecular weights of immuno-stained proteins was performed by adding molecular weight standards (Bio Rad) to reference lanes and staining the membrane filters with amido black.
# The indicated densitometric measurements were made on a BioImage AK Kodak Visage 110.
# An estimate of the limit of detection of dioxinlike activity can be made using the 0.25 μg/kg dose as the minimally effective dose. At this level of administration of TCDD, the 37 kDalton band becomes easily visible. Assuming a 20 g mouse, the diethyl ether extract would have to contain 5 ng of dioxin equivalents to initiate a tryosylphosphorylation of the 37 kDalton protein. […]
# [3] = system: total cell lysate protein tyrosylphosphorylation in X3 human lymphoblastoma cells; assay: ELISA with antiphosphotyrosine monoclonal antibody, X3 cell lysate; assay type: cell-based; conditions: 16 hours
# Experimental: The X3 human lymphoblastoma cells (Genetest, Wolburn, Mass.) were grown in 75 cm^2 T-flasks in RPMI 1640 medium (Gibco) containing 9% horse serum. Any cell or cell line expressing cytochrome P-450IA1 may be used. The cells were cultured at 37° C. in a 5% CO2 (balance air) environment. Cells were subcultured by centrifuging (1000 rpm, 3 minutes) and resuspended in fresh media to a volume of 50 mL (at a cell density of 1.0×10^6 cells/mL). The TCDD-corn oil solution was homogenized with serum to a final concentration of 0.10 μg/mL. The TCDD-serum was added at concentrations of 0, 0.02, 0.05, 0.1, 0.5 and 1.0 nM per flask and incubated for 16 hours. After the appropriate incubation time, the cells were harvested by centrifugation and washed three times (PBS, […]). A final cell count was then determined.
# ELISA were performed with 96-well microtiter plates precoated with antigen. X3 cell lysate was used as antigen and was prepared as a series of geometric dilutions ranging from 0.4 to 500 μg protein/mL PBS. One-tenth mL from each dilution was promptly pipetted into the wells of the microtiter plate in quadruplicate. […] Peroxidase activity was determined after incubation with substrate (0.03% H2 O2 and 1 mM 2,2'-azinodi(d-ethyl-benzthiazoline sulfonic acid-6) dissolved in 100 mM sodium citrate (pH 4.2) at 22° C. At the first visualization of color change A415 values were recorded.
# Ah receptor = conditions: cited from earlier work
# [4] = system: cytochrome P-450IA1 aryl hydrocarbon hydroxylase; conditions: 3 days post-injection (Poland et al. 1974); cited from earlier work
compound,measurement,setting,value
"Clc1cc2c(cc1Cl)Oc1cc(Cl)c(Cl)cc1O2 [TCDD, 2,3,7,8-tetrachlorodibenzo-p-dioxin]",dose of maximal total protein tyrosylphosphorylation,"[1]; ELISA, i.p., 24 hours after dosing, female C57BL/6 mice",2 μg TCDD/kg
same,ED50,"[1]; Mus musculus, ip, ELISA, i.p., 24 hours after dosing, female C57BL/6 mice, read-out: median effective dose (ED50), total hepatic S-9 pTP",0.5 µg/kg
same,separation of ED50s for total protein or 44 kDalton pTP and EROD,"[1]; ratio to EROD ED50 (A3), C57BL/6 mice",10 factor
same,minimal effective dose,"[2]; Mus musculus, ip, 24 h, in vivo limit-of-detection estimate, read-out: minimally effective dose (37 kDalton band easily visible)",0.25 µg/kg
same,ED50,"[2]; Mus musculus, ip, densitometry of immunoblot, i.p., 24 hours after dosing, read-out: ED50, 44 kDalton protein tyrosylphosphorylation",0.5 µg/kg
same,dose of maximal 44 kDalton protein tyrosylphosphorylation,"[2]; densitometry of immunoblot, i.p., 24 hours after dosing",1 μg TCDD/kg
same,tyrosylphosphorylation of the 37 kDalton protein,"[2]; immunoblot, i.p., 24 hours",resulted in the tyrosylphosphorylation of the 37 kDalton protein; also recorded: highly phosphorylated at tyrosine residues
same,concentration of maximal total protein tyrosylphosphorylation,[3],1 nM
same,EC50,[3]; Homo sapiens,0.13 nM
same,hepatic level of TCDD binding Ah receptor,Ah receptor; DBA/2 mouse,less than 1 fmol of receptor/mg of cytosolic protein
same,binding to DBA/2 mouse receptor,Ah receptor,Weaker binding
same,"published ED50, induction of aryl hydrocarbon hydroxylase specific activity",[4],approximately 3 μg/kg
